Tested on: Human gastric cancer cells (MKN-45)
Assay: Inhibitory activity against the tumor growth of human gastric cancer cells (MKN-45) transplanted in nude mice
Type: in vivo, BALB/c (nu/nu) mice
Details: orally twice every day, tumor volume at fifth day, relative to control group
Procedure: Human gastric cancer cells (MNK-45) were suspended in HBSS (purchased from GIBCO BRL). The cell suspension (5×10^7 cells/ml) was transplanted under the right flank skin of seven-week-old female BALB/c (nu/nu) mice at a volume of 0.1 ml. When tumor volume of the site transplanted with MNK-45 cells grew to 100-200 mm^3, mice were grouped so that the groups might be equalized in average tumor volume. The test substance was suspended in 0.5% methylcellulose, a mixed solution of hydrochloric acid and glucose (0.1N hydrochloric acid:5% glucose=1:9) or a mixed solution of dimethyl sulfoxide-Tween-glucose (dimethyl sulfoxide:Tween 80:5% glucose (containing equimolar hydrochloric acid to the test substance)=7:13:80), were administered orally to the mice twice every day. The tumor volumes were determined at the fifth day after the initiation of the administration of the test substances. The major axis and the minor axis of tumor were measured by a caliper to calculate ½×(major axis×minor axis×minor axis) for the tumor volume. The experiment was conducted using 10 mice in the control group (solvent-administered group) and 5 mice in test substance-administered group. The ratio in tumor volume of the group for administrating the test substance relative to that of the control group was defined as a tumor proliferation rate (%).

Compound	Tumor proliferation rate (%) (Dose 30 mg/kg/time)	Tumor proliferation rate (%) (Dose 100 mg/kg/time)
CN(C)CC1CCN(C(=O)Nc2cc(Oc3ccc(NC(=O)C4(C(=O)Nc5ccc(F)cc5)CC4)c(F)c3)ccn2)CC1 [Example 8, N-[4-({2-[({4-[(Dimethylamino)methyl]piperidin-1-yl}carbonyl)amino]pyridin-4-yl}oxy)-2-fluorophenyl]-N′-(4-fluorophenyl)cyclopropane-1,1-dicarboxamide]	53	23.3
CN1CCC(N(C)C(=O)Nc2cc(Oc3ccc(NC(=O)C4(C(=O)Nc5ccc(F)cc5)CC4)cc3)ccn2)CC1 [Example 12]	73.9	27.6
CN(C)CCN1CCN(C(=O)Nc2cc(Oc3ccc(NC(=O)C4(C(=O)Nc5ccc(F)cc5)CC4)c(F)c3)ccn2)CC1 [Example 2, N-[4-({2-[({4-[2-(Dimethylamino)ethyl]piperazin-1-yl}carbonyl)amino]pyridin-4-yl}oxy)-2-fluorophenyl]-N′-(4-fluorophenyl)cyclopropane-1,1-dicarboxamide]	73.3	27.5

From patent publication US7855290B2, “Pyridine derivatives and pyrimidine derivatives (3)” (Eisai R&D Management Co., Ltd., priority 2005, dated 2010)
